Results taken from patent US20140228286A1, “SPECIFIC PDE4B-INHIBITORS FOR THE TREATMENT OF DIABETES MELLITUS” (BOEHRINGER INGELHEIM INTERNATIONAL GMBH, priority 2013, published 2014).
pIC50: −log10 of the molar value.

Key:
PDE4B = molecular target: T1, PDE4B (Homo sapiens, UniProt Q07343); test: PDE4B Scintillation Proximity (SPA) Assay; assay type: biochemical; conditions: PDE4B active site fragment amino acids 152-484; [3H]cAMP; 30° C., one hour; read-out: Experimentally determined IC50-value for PDE4B inhibition
T1 construct: active site fragment comprising the amino acids 152-484
T1 sequence (Q07343 324-656): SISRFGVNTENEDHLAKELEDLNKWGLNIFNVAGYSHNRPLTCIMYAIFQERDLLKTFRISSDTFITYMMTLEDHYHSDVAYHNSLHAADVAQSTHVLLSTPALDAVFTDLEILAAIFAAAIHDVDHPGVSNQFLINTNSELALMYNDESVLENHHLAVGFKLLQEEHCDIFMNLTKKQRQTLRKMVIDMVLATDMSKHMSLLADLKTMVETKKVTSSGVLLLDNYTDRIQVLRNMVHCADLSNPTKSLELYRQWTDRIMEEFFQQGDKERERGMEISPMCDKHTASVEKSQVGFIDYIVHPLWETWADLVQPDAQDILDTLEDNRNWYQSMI
Description: The IC50-values of the compounds of the invention (Examples 1.1 to 1.47) with respect to their PDE4B-inhibiting ability have been determined with a Scintillation Proximity (SPA) Assay (GE Healthcare, No. TRKQ7090). The Scintillation Proximity (SPA) Assay is based on the detection of the different affinities of the cyclic 3′-5′adenosine monophosphate (cAMP, low affinity) and the linear 5′-adenosine monophosphate (AMP, high affinity) to yttrium-silicate-scintillator beads. The cAMP-specific phosphodiesterase (PDE) PDE4B cleaves the 3′-phosphodiester bond of the tritium-labelled-[^3H]cAMP to the [^3H]5′-AMP. This [^3H]5′-AMP associates with the scintillator beads because of their higher affinity and causes scintillations (light flashes) which can be measured in a Wallac Microbeta Scintillation Counter.
10 μl of a [^3H]cAMP-solution (0.05 μCi in H2O, 10-30 Ci/mmol) are added to 89 μl of a PDE4B-enzyme-solution (active site fragment comprising the amino acids 152-484; 0.15-0.18 ng) in assay buffer (50 mM Tris HCl pH 7.5; 8.3 mM MgCl2; 1,7 mM ethylene glyclol tetraacetic acid (EGTA); 0.25 mg/ml bovine serum albumin (BSA)) and this mixture is incubated at 30° C. for one hour
a) without the compound to be tested (in the presence of 1 μl dimethylsulfoxide (DMSO), corresponding to 1% DMSO) and b) in the presence of the compound to be tested in a concentration of 125 μM, 25 μM, 5 μM, 1 μM, 200 nM, 40 nM, 8 nM, 1.6 nM, 0.32 nM, 0.064 nM, 0.0128 nM (dilution series in 5er-steps beginning from 125 μM until 0.0128 nM, in the presence of 1% DMSO).
After this incubation the reaction is stopped by the addition of 50 μl of bead-solution (500 mg beads/35 ml H2O, 18 mM zinc sulfate). In the following 45 minutes the beads have the opportunity to form a sediment. After that the scintillations are measured in the scintillation counter. If the tested compound is able to inhibit the enzymatic activity of the PDE4B-enzyme, less [^3H]AMP depending on the concentration of the tested compound is produced and less scintillations are measurable. […] The IC50-value stands for the compound concentration at which the PDE4B enzyme activity is inhibited to a half maximal value. Therefore the lower the IC50-value is the better is the PDE4B inhibition.

Sprague Dawley (SD) rats = test: Oral glucose tolerance test in overnight fasted male Sprague Dawley rats; assay type: in vivo, rat; conditions: 60 min before oral glucose load 2 g/kg, versus vehicle control
Description: An oral glucose tolerance test is performed in overnight fasted male Sprague Dawley (SD) rats (RjHan:SD), with a weight of 320-350 g. A pre-dose blood sample is obtained by tail bleed. Blood glucose is measured with a glucometer, and the animals are randomized for blood glucose (n=6/group). Subsequently, the groups receive a single oral administration of either vehicle alone (0.5% aqueous hydroxyethyl-cellulose) or vehicle containing one of the PDE4 inhibitors. The animals receive an oral glucose load (2 g/kg) 60 min after compound administration. Blood glucose is measured in tail blood 15 min, 30 min, 60 min, 90 min, and 120 min after the glucose challenge. Glucose excursion is quantified by calculating the reactive glucose AUC (area under the curve). The data are presented as mean±SEM (standard error of mean). The two-sided unpaired Student t-test is used for statistical comparison of the control group and the active groups.
“Cpd. A” is the PDE4 inhibitor Example 1.35 at a dose of 1 and 3 mg/kg. “Cpd. B” is the PDE4 inhibitor Example 1.46 at a dose of 1 and 3 mg/kg. P values versus control are indicated by symbols above the bars (*, p<0.05). Cpd. A (=Example 1.35) reduces glucose excursion by 13.2 (p=0.09) and 15.0% (p=0.11) with a dose of 1 and 3 mg/kg, respectively. Cpd. […] Cpd.

## [O-][S+]1CCc2nc(N3CCC(Oc4ccc(Cl)cc4)CC3)nc(NC3CCOCC3)c21 (stereo not drawn) [Example 1.35, {2-[4-(4-chlorophenoxy)-piperidin-1-yl]-5-oxo-6,7-dihydro-5H-5λ^4-thieno[3,2-d]pyrimidin-4-yl}-(tetrahydropyran-4-yl)-amine]
PDE4B
  pIC50: 8.41
Sprague Dawley (SD) rats; single oral dose 1 mg/kg
  reduces glucose excursion (reactive glucose AUC): 13.2%
Sprague Dawley (SD) rats; single oral dose 3 mg/kg
  reduces glucose excursion (reactive glucose AUC): 15.0%
